Results reported in ChEMBL document CHEMBL5338758, “Design, Synthesis, and Bioevaluation of Novel MyD88 Inhibitor c17 against Acute Lung Injury Derived from the Virtual Screen” (J Med Chem, 2023).
Active and inactive are the calls of the source. No cut-off for these calls is given here.

Legend:
[1] = Drug distribution in Sprague-Dawley rat liver at 10 mg/kg, po measured after 3 hrs by LC-MS/MS analysis; assay type: ADME, organism-based; details: read-out: Drug uptake
[2] = Drug distribution in Sprague-Dawley rat kidney at 1 mg/kg, iv measured after 2 hrs by LC-MS/MS analysis; assay type: ADME, organism-based; details: read-out: Drug uptake
[3] = biological target: Myeloid differentiation primary response protein MyD88 (Homo sapiens, UniProt Q99836); assay: Binding affinity to human MyD88 TIR domain assessed as equilibrium dissociation constant by SPR analysis
Myeloid differentiation primary response protein MyD88, sequence (Q99836 whole entry, the tested form may be a part): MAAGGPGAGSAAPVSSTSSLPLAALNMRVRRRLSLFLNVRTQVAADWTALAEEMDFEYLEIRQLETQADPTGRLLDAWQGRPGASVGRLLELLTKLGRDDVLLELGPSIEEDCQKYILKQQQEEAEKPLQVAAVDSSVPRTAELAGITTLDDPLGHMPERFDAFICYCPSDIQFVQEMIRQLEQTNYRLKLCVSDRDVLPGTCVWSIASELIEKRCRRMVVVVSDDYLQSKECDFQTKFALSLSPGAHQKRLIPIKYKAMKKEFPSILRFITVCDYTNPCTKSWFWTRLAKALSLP

Mus musculus [4] = assay: (§1) Anti-inflammatory activity against LPS-induced […] mouse model of […] assessed as alleviation of inflammatory infiltration in lung at 20 mg/kg, po pre-treated with compound for 30 mins followed by LPS stimulation and measured after 6 hrs by H&E staining based histopathological analysis; assay type: functional, organism-based; details: time 6.5 hrs
[5] = Drug distribution in Sprague-Dawley rat heart at 10 mg/kg, po measured after 8 hrs by LC-MS/MS analysis; assay type: ADME, organism-based; details: read-out: Drug uptake
Mus musculus [6] = assay: as §1, with “thickened alveolar septa” for “inflammatory infiltration”; assay type: functional, organism-based; details: time 6.5 hrs
J774.A1 [7] = assay: Inhibition of NF-kappaB pathway in LPS-induced mouse J774.A1 cells assessed as […] in IkappaB-alpha phosphorylation at 10 to 40 uM preincubated with compound for 2 hrs followed by LPS-stimulation and measured after 15 mins by Western blot analysis; assay type: cell-based; details: dose 10-40 µM, time 135.0 min
[8] = Drug distribution in Sprague-Dawley rat kidney at 10 mg/kg, po measured after 3 hrs by LC-MS/MS analysis; assay type: ADME, organism-based; details: read-out: Drug uptake
[9] = Drug distribution in Sprague-Dawley rat lung at 1 mg/kg, iv measured after 4 hrs by LC-MS/MS analysis; assay type: ADME, organism-based; details: read-out: Drug uptake
J774.A1 [10] = assay: Inhibition of NF-kappaB pathway in LPS-induced mouse J774.A1 cells assessed as reduction in p65 nuclear reactivity preincubated with compound for 2 hrs followed by LPS-stimulation and measured after 15 mins by DAPI staining based immunofluorescence analysis; assay type: cell-based; details: time 135.0 min
[11] = Drug distribution in Sprague-Dawley rat heart at 1 mg/kg, iv measured after 0.5 hrs by LC-MS/MS analysis; assay type: ADME, organism-based; details: read-out: Drug uptake
THP-1 [12] = assay: Anti-inflammatory activity in human THP-1 cells assessed as inhibition of LPS-stimulated TNF-alpha release at 1.25 to 20 uM by ELISA analysis; assay type: functional, cell-based; details: dose 1.25-20 µM
[13] = Toxicity in ICR mouse assessed as mortality at 20 to 400 mg/kg, po measured upto 21 days; assay type: organism-based; details: in vivo, 504 h, dose 20-400 mg/kg, time < 21 day
[14] = Drug distribution in Sprague-Dawley rat liver at 1 mg/kg, iv measured after 2 hrs by LC-MS/MS analysis; assay type: ADME, organism-based; details: read-out: Drug uptake
[15] = Drug distribution in Sprague-Dawley rat lung at 10 mg/kg, po measured after 8 hrs by LC-MS/MS analysis; assay type: ADME, organism-based; details: read-out: Drug uptake
[16] = Stability of compound in rat serum at 32 degreeC measured every 2 hrs for 24 hrs by HPLC analysis; assay type: ADME, cell-free
[17] = Drug distribution in Sprague-Dawley rat brain at 10 mg/kg, po measured after 8 hrs by LC-MS/MS analysis; assay type: ADME, organism-based; details: read-out: Drug uptake
[18] = Drug distribution in Sprague-Dawley rat kidney at 10 mg/kg, po measured after 8 hrs by LC-MS/MS analysis; assay type: ADME, organism-based; details: read-out: Drug uptake
Mus musculus [19] = assay: Anti-inflammatory activity against LPS-induced […] mouse model of […] assessed as alleviation of lung edema by measuring decrease in wet/dry weight ratio at 20 mg/kg, po pre-treated with compound for 30 mins followed by LPS stimulation and measured after 6 hrs; assay type: functional, organism-based; details: time 6.5 hrs
[20] = Drug distribution in Sprague-Dawley rat lung at 1 mg/kg, iv measured after 0.5 hrs by LC-MS/MS analysis; assay type: ADME, organism-based; details: read-out: Drug uptake
J774.A1 [21] = assay: Anti-inflammatory activity in mouse J774.A1 cells assessed as inhibition of LPS-induced IL-6 production at 10 uM pre-stimulated with LPS for 24 hrs followed by compound addition and measured after 0.5 hrs by ELISA analysis relative to control; assay type: functional
Mus musculus [22] = assay: Anti-inflammatory activity against LPS-induced […] mouse model of […] assessed as alleviation of tissue destruction in lung at 20 mg/kg, po pre-treated with compound for 30 mins followed by LPS stimulation and measured after 6 hrs by H&E staining based histopathological analysis; assay type: functional, organism-based; details: time 6.5 hrs
[23] = Drug distribution in Sprague-Dawley rat spleen at 1 mg/kg, iv measured after 4 hrs by LC-MS/MS analysis; assay type: ADME, organism-based; details: read-out: Drug uptake
THP-1 [24] = assay: Anti-inflammatory activity in human THP-1 cells assessed as inhibition of LPS-stimulated IL-6 release at 1.25 to 20 uM by ELISA analysis; assay type: functional, cell-based; details: dose 1.25-20 µM
[25] = Drug distribution in Sprague-Dawley rat spleen at 1 mg/kg, iv measured after 0.5 hrs by LC-MS/MS analysis; assay type: ADME, organism-based; details: read-out: Drug uptake
[26] = Drug distribution in Sprague-Dawley rat spleen at 10 mg/kg, po measured after 1 hrs by LC-MS/MS analysis; assay type: ADME, organism-based; details: read-out: Drug uptake
[27] = Half-life in Sprague-Dawley rat at 10 mg/kg, po measured at 15 to 1440 min by LC-MS/MS analysis; assay type: ADME, organism-based; details: in vivo, time 15-1440 min
[28] = Drug distribution in Sprague-Dawley rat brain at 1 mg/kg, iv measured after 4 hrs by LC-MS/MS analysis; assay type: ADME, organism-based; details: read-out: Drug uptake
[29] = Drug distribution in Sprague-Dawley rat kidney at 10 mg/kg, po measured after 1 hrs by LC-MS/MS analysis; assay type: ADME, organism-based; details: read-out: Drug uptake
[30] = Drug distribution in Sprague-Dawley rat spleen at 1 mg/kg, iv measured after 2 hrs by LC-MS/MS analysis; assay type: ADME, organism-based; details: read-out: Drug uptake
[31] = Drug distribution in Sprague-Dawley rat liver at 1 mg/kg, iv measured after 4 hrs by LC-MS/MS analysis; assay type: ADME, organism-based; details: read-out: Drug uptake
Mus musculus [32] = assay: Anti-inflammatory activity against LPS-induced […] mouse model of […] assessed as decrease in IL-6 level in serum at 20 mg/kg, po pre-treated with compound for 30 mins followed by LPS stimulation and measured after 6 hrs; assay type: functional, organism-based; details: time 6.5 hrs
J774.A1 [33] = assay: Inhibition of NF-kappaB pathway in LPS-induced mouse J774.A1 cells assessed as decrease in p65 nuclear translocation preincubated with compound for 2 hrs followed by LPS-stimulation and measured after 15 mins by Western blot analysis; assay type: cell-based; details: dose 10-40 µM, time 135.0 min
[34] = Cmax in Sprague-Dawley rat at 1 mg/kg, iv measured at 5 to 1440 min by LC-MS/MS analysis; assay type: ADME, organism-based; design: time upper 1440 min, dose 1 mg/kg, time lower 5 min, route iv; details: in vivo

SMILES: COc1ccc(NS(=O)(=O)c2ccc(N3CCN(Cc4cccc([N+](=O)[O-])c4)CC3)c([N+](=O)[O-])c2)cn1
- concentration at 3 h [1]: 287 ng/g
- concentration at 2 h [2]: 143 ng/g
- Kd [3]: 53 µM
- Activity (Mus musculus [4]): Active
- concentration at 8 h [5]: 452 ng/g
- Activity (Mus musculus [6]): Active
- inhibition (J774.A1 [7]): Active
- concentration at 3 h [8]: 3.31 ng/g
- concentration at 4 h [9]: 502 ng/g
- inhibition (J774.A1 [10]): Active
- concentration at 0.5 h [11]: 52.1 ng/g
- inhibition (THP-1 [12]): Active
- Activity [13]: Non-Toxic
- concentration at 2 h [14]: 192 ng/g
- concentration at 8 h [15]: 527 ng/g
- Stability [16]: Stable
- concentration at 8 h [17]: 39.9 ng/g
- concentration at 8 h [18]: 656 ng/g
- Activity (Mus musculus [19]): Active
- concentration at 0.5 h [20]: 98.2 ng/g
- inhibition at 10 µM (J774.A1 [21]): 69%
- Activity (Mus musculus [22]): Active
- concentration at 4 h [23]: 113 ng/g
- inhibition (THP-1 [24]): Active
- concentration at 0.5 h [25]: 32.2 ng/g
- concentration at 1 h [26]: 78.8 ng/g
- half-life [27]: 7 h
- concentration at 4 h [28]: 7.99 ng/g
- concentration at 1 h [29]: 4.15 ng/g
- concentration at 2 h [30]: 76.8 ng/g
- concentration at 4 h [31]: 137 ng/g
- Activity (Mus musculus [32]): Active
- inhibition (J774.A1 [33]): Dose-Dependent Effect
- Cmax [34]: 2770 ng/mL
